Laboratory results reported in patent US9115147B2, “Tricyclic derivatives and their pharmaceutical use and compositions” (Cephalon, Inc., priority 2009, dated 2015).
pKi: −log10 of the molar value. Like-named read-outs stand apart in the source and are kept apart here.

Tests used:
[1] = tested on: rats; conditions: compared to an untreated control group; cited from earlier work
[2] = tested on: rats; conditions: rat model of tonic, persistent pain; cited from earlier work
[3] = molecular target: T1, human 5-HT6 receptor (Homo sapiens, UniProt P50406); assay: Human 5-HT6 Receptor Binding Assay ([3H]LSD, scintillation beads)
T1 construct: host or cells: CHO-K1 cells, stably transfected; membranes prepared in house
Method in brief: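 Membranes from CHO-K1 cells stably expressing human 5-HT6, 1.75 μg protein/well with scintillation beads, in 50 mM Tris pH 7.4, 4 mM CaCl2, saponin, ascorbic acid. Nonspecific binding with 10 μM serotonin. IC50 from variable-slope fit; Ki by Cheng-Prusoff.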

[4] = membranes of CHO-K1 cells with recombinant human 5-HT6 receptor, 4 nM [3H]LSD, Cheng-Prusoff; read-out: Human 5-HT6 Ki app

T1 sequence (P50406 whole entry): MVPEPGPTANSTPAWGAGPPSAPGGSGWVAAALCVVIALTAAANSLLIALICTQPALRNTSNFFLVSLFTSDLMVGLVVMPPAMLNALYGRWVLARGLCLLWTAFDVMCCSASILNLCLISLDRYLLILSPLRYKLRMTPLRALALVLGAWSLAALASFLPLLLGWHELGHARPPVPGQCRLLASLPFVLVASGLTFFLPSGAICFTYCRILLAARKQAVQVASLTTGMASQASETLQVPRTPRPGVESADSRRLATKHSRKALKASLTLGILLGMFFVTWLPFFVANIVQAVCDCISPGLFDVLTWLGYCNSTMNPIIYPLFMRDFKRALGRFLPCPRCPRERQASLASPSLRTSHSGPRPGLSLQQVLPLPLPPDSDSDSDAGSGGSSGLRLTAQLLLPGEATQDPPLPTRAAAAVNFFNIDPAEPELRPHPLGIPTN

Compound | pKi [3, 4] | also measured
CN1CCN(c2cccc3c(S(=O)(=O)c4ccccc4)c[nH]c23)CC1 [RO 4368554] |  | non-REM (NREM) sleep [1]: increase
COc1ccc(NS(=O)(=O)c2sc3ccc(Cl)cc3c2C)cc1N1CCNCC1 [SB-271046] |  | antinociceptive effect [2]: short-lived, antinociceptive effect
O=S(=O)(c1cc(F)cc(Cl)c1)c1ccc2c(c1)OCC1NCCC21 (single isomer, unassigned) [Example 6, 7-[(3-chloro-5-fluorophenyl)sulfonyl]-1,2,3,3a,4,9b-hexahydrochromeno[3,4-b]pyrrole] | > 6.30 | 
O=S(=O)(c1cncc(F)c1)c1ccc2c(c1)OCC1NCCC21 (single isomer, unassigned) [Example 29, 7-[(5-fluoropyridin-3-yl)sulfonyl]-1,2,3,3a,4,9b-hexahydrochromeno[3,4-b]pyrrole] |  | Ki ([3]; Human 5-HT6 Ki app (nM), membranes of CHO-K1 cells with recombinant human 5-HT6 receptor, 4 nM [3H]LSD, Cheng-Prusoff): < 500 nM
Cc1cccc(S(=O)(=O)c2ccc3c(c2)OCC2NCCC32)n1 (single isomer, unassigned) [Example 24, 7-[(6-methylpyridin-2-yl)sulfonyl]-1,2,3,3a,4,9b-hexahydrochromeno[3,4-b]pyrrole] |  | pKi ([3]; read-out: Human 5-HT6 Ki app; membranes of CHO-K1 cells with recombinant human 5-HT6 receptor, 4 nM [3H]LSD, Cheng-Prusoff): > 6.30
O=S(=O)(c1cccc(C(F)(F)F)c1)c1ccc2c(c1)OCC1NCCC21 (single isomer, unassigned) [Example 17, 7-{[3-(trifluoromethyl)phenyl]sulfonyl}-1,2,3,3a,4,9b-hexahydrochromeno[3,4-b]pyrrole] | > 6.30 | 

Continued, in another order:

pKi [3, 4] | Compound | also measured
> 6.30 | CN(C)C(=O)c1cccc(S(=O)(=O)c2ccc3c(c2)OC[C@H]2NCC[C@@H]32)c1 (single isomer, unassigned) [Example 38] | 
> 6.30 | O=S(=O)(c1ccc2c(c1)OCC1NCCC21)c1cc(F)cc(F)c1F (single isomer, unassigned) [Example 50, 7-[(2,3,5-trifluorophenyl)sulfonyl]-1,2,3,3a,4,9b-hexahydrochromeno[3,4-b]pyrrole] | 
> 6.30 | O=S(=O)(c1cc(F)cc(F)c1)c1ccc2c(c1)OCC1NCCC21 (racemic) [Example 105, 7-[(3,5-difluorophenyl)sulfonyl]-1,2,3,3a,4,9b-hexahydrochromeno[3,4-b]pyrrole] | 
< 6.00 | Cc1cccc([S+]([O-])c2ccc3c(c2)OCC2C3CCN2C2CCC2)n1 (single isomer, unassigned) [Example 83, 3-cyclobutyl-7-[(6-methylpyridin-2-yl)sulfinyl]-1,2,3,3a,4,9b-hexahydrochromeno[3,4-b]pyrrole] | 
< 6.00 | O=S(=O)(c1cncc(C(F)(F)F)c1)c1ccc2c(c1)OCC1C2CCN1C1CCC1 (single isomer, unassigned) [Example 86, 3-cyclobutyl-7-{[5-(trifluoromethyl)pyridin-3-yl]sulfonyl}-1,2,3,3a,4,9b-hexahydrochromeno[3,4-b]pyrrole] | 
